Data taken from paper PMC8149447, “Caerulomycin and collismycin antibiotics share a trans-acting flavoprotein-dependent assembly line for 2,2’-bipyridine formation” (Nature Communications, 2021).

What was measured:
[1] = target: T1, CaeB1 (Actinoalloteichus caeruleus, UniProt M1F383, S168A); assay: absorbance spectrum; activity rescue by added FAD; type: biochemical; conditions: noncovalent; excess FAD added in the product assay
T1 construct: full length, N-terminal 6xHis (or MBP-6xHis) tag, expressed in E. coli; noncovalent FAD

[2] = target: T2, CaeB1 (Actinoalloteichus caeruleus, UniProt M1F383, E372L); assay: absorbance spectrum of purified protein; type: binding; conditions: noncovalent; co-purified, oxidized form
T2 construct: full length, N-terminal 6xHis (or MBP-6xHis) tag, expressed in E. coli; noncovalent FAD

[3] = target: T3, ColB1 (Streptomyces filamentosus, UniProt A0ABY4UQ20); assay: heat denaturation and HPLC-DAD / ESI-HR-MS; type: binding; conditions: noncovalent; co-purified
T3 construct: gene K7395_06050; full length, N-terminal 6xHis (or MBP-6xHis) tag; noncovalent FAD
T3 sequence (A0ABY4UQ20 1-394): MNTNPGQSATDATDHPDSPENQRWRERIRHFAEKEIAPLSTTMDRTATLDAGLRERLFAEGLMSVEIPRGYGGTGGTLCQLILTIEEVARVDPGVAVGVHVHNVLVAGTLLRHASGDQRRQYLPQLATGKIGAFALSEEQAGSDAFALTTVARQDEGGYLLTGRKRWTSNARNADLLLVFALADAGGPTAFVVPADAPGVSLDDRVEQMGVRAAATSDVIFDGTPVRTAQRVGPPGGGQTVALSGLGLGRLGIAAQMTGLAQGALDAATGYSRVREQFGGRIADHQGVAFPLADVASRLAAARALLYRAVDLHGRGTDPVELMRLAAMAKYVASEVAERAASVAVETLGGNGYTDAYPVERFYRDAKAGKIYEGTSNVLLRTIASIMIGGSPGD

[4] = target: T4, CaeB1 (Actinoalloteichus caeruleus, UniProt M1F383); assay: absorbance spectrum; heat denaturation and HPLC-HR-MS; type: binding; conditions: noncovalent; co-purified, oxidized form
T4 construct: full length, N-terminal 6xHis (or MBP-6xHis) tag, expressed in E. coli; noncovalent FAD
T4 sequence (M1F383 1-386): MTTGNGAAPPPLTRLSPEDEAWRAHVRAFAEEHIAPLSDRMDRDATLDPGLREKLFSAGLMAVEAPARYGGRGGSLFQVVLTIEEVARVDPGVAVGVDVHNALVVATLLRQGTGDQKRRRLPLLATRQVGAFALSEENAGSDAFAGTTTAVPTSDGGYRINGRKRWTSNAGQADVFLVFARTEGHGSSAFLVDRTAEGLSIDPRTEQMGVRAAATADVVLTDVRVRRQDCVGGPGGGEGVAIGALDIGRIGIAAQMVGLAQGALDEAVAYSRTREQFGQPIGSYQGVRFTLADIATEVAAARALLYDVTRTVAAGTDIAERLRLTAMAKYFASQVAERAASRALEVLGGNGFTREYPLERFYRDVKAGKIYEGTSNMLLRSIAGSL

[5] = target: T5, ColA3 (Streptomyces filamentosus, UniProt A0ABY4UPY4); assay: HPLC / MS of product […] (as IAA derivative […]) or […]; type: biochemical; conditions: reconstituted with CaeA1, CaeA2, CaeB1; picolinic acid, malonyl-CoA, L-cysteine, ATP, Mg, pH 7.5, 30 C
T5 construct: gene K7395_06055; full length C-A-PCP module, N-terminal 6xHis (or MBP-6xHis) tag

[6] = target: N-terminally thioredoxin (Trx)-tagged Ct domain of the CaeA2 NRPS module (A. cyanogriseus (CAE-producing strain)); assay: ITC; MicroCal-ITC200, 25°C; 60 μM CaeA2 construct in the cell, 400 μM flavoprotein in the syringe; 50 mM Tris-HCl pH 7.5, 100 mM NaCl, 0.1 mM TCEP, 5% glycerol; single binding site model
[7] = target: T6, MBP-fused CaeB1 variant (A. cyanogriseus (CAE-producing strain), UniProt M1F383 1-386); assay: as above; conditions: both partners purified
T6 construct: CaeB1, flavin (FAD)-dependent protein of the caerulomycin (cae) biosynthetic gene cluster; also called trans-acting flavoprotein; not shown: MBP, N-terminal, kept
T6 sequence (looked up): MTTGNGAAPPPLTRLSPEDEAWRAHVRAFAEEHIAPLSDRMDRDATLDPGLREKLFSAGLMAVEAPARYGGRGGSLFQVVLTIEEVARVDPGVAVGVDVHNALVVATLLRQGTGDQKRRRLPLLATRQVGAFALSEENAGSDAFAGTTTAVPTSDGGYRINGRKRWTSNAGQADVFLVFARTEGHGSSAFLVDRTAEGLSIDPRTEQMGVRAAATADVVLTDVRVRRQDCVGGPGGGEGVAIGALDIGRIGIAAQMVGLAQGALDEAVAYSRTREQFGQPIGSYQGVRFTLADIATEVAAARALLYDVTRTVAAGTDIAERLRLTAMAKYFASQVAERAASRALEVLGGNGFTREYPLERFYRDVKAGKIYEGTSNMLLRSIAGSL

[8] = target: Ct-PCP didomain of the CaeA2 NRPS module (A. cyanogriseus (CAE-producing strain)); assay: as above

T1 sequence (M1F383 entry or part of it S168A): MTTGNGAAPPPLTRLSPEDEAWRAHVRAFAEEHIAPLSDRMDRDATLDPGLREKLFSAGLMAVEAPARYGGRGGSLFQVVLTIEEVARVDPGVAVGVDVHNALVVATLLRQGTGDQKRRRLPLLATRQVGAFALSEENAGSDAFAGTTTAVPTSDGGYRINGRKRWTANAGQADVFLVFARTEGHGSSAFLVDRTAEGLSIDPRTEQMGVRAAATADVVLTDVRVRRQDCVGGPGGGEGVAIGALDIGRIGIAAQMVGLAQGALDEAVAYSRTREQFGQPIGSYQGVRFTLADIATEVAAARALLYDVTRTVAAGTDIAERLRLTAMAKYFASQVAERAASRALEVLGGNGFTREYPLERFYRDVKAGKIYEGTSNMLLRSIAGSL
T5 sequence (A0ABY4UPY4 entry or part of it): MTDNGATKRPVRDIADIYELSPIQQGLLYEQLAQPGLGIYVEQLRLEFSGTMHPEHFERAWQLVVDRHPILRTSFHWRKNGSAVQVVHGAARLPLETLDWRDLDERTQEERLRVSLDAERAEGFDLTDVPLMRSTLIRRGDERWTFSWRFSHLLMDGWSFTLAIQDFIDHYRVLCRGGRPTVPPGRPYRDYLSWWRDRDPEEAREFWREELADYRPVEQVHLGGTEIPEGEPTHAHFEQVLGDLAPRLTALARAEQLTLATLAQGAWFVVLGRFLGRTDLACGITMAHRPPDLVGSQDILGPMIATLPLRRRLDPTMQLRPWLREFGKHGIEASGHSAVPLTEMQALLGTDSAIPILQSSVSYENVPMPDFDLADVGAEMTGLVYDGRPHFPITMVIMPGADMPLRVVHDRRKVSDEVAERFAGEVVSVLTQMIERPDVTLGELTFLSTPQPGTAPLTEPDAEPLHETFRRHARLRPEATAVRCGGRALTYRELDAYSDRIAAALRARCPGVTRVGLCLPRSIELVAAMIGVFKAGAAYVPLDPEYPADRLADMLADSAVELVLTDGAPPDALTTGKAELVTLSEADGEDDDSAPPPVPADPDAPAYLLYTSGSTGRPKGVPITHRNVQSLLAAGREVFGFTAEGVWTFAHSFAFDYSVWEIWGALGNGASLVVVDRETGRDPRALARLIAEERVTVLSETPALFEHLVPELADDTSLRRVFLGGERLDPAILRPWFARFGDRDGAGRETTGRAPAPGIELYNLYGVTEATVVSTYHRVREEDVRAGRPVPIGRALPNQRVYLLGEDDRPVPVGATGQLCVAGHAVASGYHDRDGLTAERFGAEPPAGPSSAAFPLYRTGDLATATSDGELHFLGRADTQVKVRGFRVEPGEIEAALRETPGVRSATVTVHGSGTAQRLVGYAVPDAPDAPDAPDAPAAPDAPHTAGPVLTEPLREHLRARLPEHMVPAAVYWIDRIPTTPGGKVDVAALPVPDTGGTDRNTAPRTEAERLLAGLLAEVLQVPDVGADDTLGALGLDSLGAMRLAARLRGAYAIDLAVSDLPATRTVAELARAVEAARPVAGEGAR
T2 sequence (M1F383 entry or part of it E372L): as the sequence (M1F383 entry or part of it S168A) above, with A168S, E372L counted along it

Cc1cc2nc3c(=O)[nH]c(=O)nc-3n(C[C@H](O)[C@H](O)[C@H](O)COP(=O)(O)OP(=O)(O)OC[C@H]3O[C@@H](n4cnc5c(N)ncnc54)[C@H](O)[C@@H]3O)c2cc1C [FAD]
FAD-binding ability [1]: the latter variant was nearly colorless, indicating the loss of FAD-binding ability
absorbance spectrum of purified protein [2]: shares with the wild-type protein a light yellow color and an absorbance spectrum characteristic of FAD
heat denaturation and HPLC-DAD / ESI-HR-MS [3]: ColB1, the homolog of trans-acting flavoprotein CaeB1 that also noncovalently binds a FAD cofactor
absorbance spectrum; heat denaturation and HPLC-HR-MS [4]: Purified CaeB1, which appeared light yellow, was determined to bind oxidized flavin adenine dinucleotide (FAD)

CC(C)C[C@H](N)C(=O)O [L-leucine]
HPLC / MS of product 15 (as IAA derivative 17) or 16 [5]: incubating CaeA1, CaeA2, and CaeB1 with ColA3 in the presence of the necessary substrates

ColB1 (enzyme)
Kd [6]: 1180 nM

B1: N-terminally thioredoxin (Trx)-tagged Ct domain of the CaeA2 NRPS module (domain or fragment)
chain: EQEADGTVAPFTPHQAALVAEGAVDWITVEAAASDLDPALAERALREIADRHPALRLRSGTRDDGTPGQYDGGSPGDGLFSEIDLSGLAEDARDDALAEIVAEMSEEVGLAEREPVKLAVVRAGADDVRLLWLAAGAALDDTSWRLLLAEFGRAYQQLAERGSIDWTGMPESVLGWVATQEGAAPPPSVETVAFTGELRTVLDADVTTAFAEATFGAYHLELGEAVAAALTVAARAWPGREPAVTVERSLRTATTDEALGRFTEVTTLDVAAEAVADTLTGVKRAYRDVVRPAPAHPRVHLRDVRSGDWRPTAGPLSPAGLSSPVSTATTPEVLAEVGAAVVGGELVLRWRHTTDAAEATALAEAFTEAVETITEHCRQAGSGSYEPSDFPLAGVDPDELSALLSTLEK
modifications: Trx/6xHis tag omitted; Ct primers not in the excerpt; start placed just after the Carrier feature (2001-2075), in line with the 58 kDa Trx fusion and the 44 kDa difference between CaeA2 and …
Kd [7]: 530 ± 120 nM

B2: MBP-fused CaeB1 variant (enzyme)
chain: MTTGNGAAPPPLTRLSPEDEAWRAHVRAFAEEHIAPLSDRMDRDATLDPGLREKLFSAGLMAVEAPARYGGRGGSLFQVVLTIEEVARVDPGVAVGVDVHNALVVATLLRQGTGDQKRRRLPLLATRQVGAFALSEENAGSDAFAGTTTAVPTSDGGYRINGRKRWTSNAGQADVFLVFARTEGHGSSAFLVDRTAEGLSIDPRTEQMGVRAAATADVVLTDVRVRRQDCVGGPGGGEGVAIGALDIGRIGIAAQMVGLAQGALDEAVAYSRTREQFGQPIGSYQGVRFTLADIATEVAAARALLYDVTRTVAAGTDIAERLRLTAMAKYFASQVAERAASRALEVLGGNGFTREYPLERFYRDVKAGKIYEGTSNMLLRSIAGSL
Kd [8]: 420 nM
